Test results as given in patent publication US7816522B2, “Triazolone derivatives” (Eisai Co., Ltd., priority 2006, dated 2010).

Biological target: T1, human clotting factor VIIa (Homo sapiens, UniProt P08709)
T1 construct: a human clotting factor VIIa (hereinafter, “Factor VIIa”) purified sample; purchased Enzyme Research Laboratories HFVIIa
Experiment: Inhibitory activity against clotting factor VIIa (chromogenic substrate Spectrozyme FVIIa, TF/Factor VIIa enzyme solution)
Type: biochemical
Details: human Factor VIIa 5 nmol/L with human TF 10 nmol/L, room temperature 40 minutes, 405 nm
Protocol: [Inhibitory Activity Against Clotting Factor VIIa]
Dimethylsulfoxide (DMSO) solutions were prepared with compounds of the invention at concentration of 10 mmol/L (10 mmol/L compound solutions).
One packet of tris-hydroxymethylaminomethane-preset (hereinafter referred to as “Tris preset”) (Product of Sigma Corp., Catalog No. T8293), 8.8 g of sodium chloride (NaCl) and 1 g of bovine serum albumin (hereinafter abbreviated as “BSA”) were dissolved in 1 L of water to prepare a Tris-BSA buffer (100 mmol/L Tris, 0.15 mol/L NaCl, 0.1% BSA, pH 7.4).
This Tris-BSA buffer (180 μL) was added to the aforementioned 10 mmol/L compound solution (20 μL). A 10-fold dilution series was prepared for this mixture using the aforementioned Tris-BSA buffer, and solutions with the compound at concentrations of 1.0 mmol/L, 100, 10, 1, 0.1, 0.01 and 0.001 μmol/L were prepared (1.0 mmol-0.001 μmol/L compound solutions). As a control, a solution was prepared by 10-fold dilution of DMSO with the Tris-BSA buffer (hereinafter referred to as “control 10% solution”).
After dissolving one packet of Tris preset, NaCl (8.8 g) and BSA (1 g) in water (about 900 mL), there were added 1 mol/L aqueous calcium chloride (CaCl2) (15 mL) and 1 mg/mL aqueous cephalin (30 mL), and the total volume was brought to 1 L by adding water. To this solution there was added a human tissue factor (hereinafter, “TF”) sample (product of Calbiochem, Catalog No. 612151) (450 μg) to a TF sample concentration of 10 nmol/L, and then a human clotting factor VIIa (hereinafter, “Factor VIIa”) purified sample (product of Enzyme Research Laboratories, Catalog No. HFVIIa) (250 μg) was added to a Factor VIIa purified sample concentration of 5 nmol/L, to prepare an enzyme solution (100 mmol/L Tris-HCl, 0.15 mol/L NaCl, 15 mmol/L CaCl2, 30 μg/mL cephalin, 1 mg/mL BSA, 10 nmol/L TF, 5 nmol/L Factor VIIa).
To 110 μL of this enzyme solution there was added 15 μL of each of the 1.0 mmol-0.001 μmol/L compound solutions, and then 25 μL of a 1.0 mmol/L synthetic chromogenic substrate solution (Spectrozyme FVIIa, product of American Diagnostica, Catalog No. 217L) was added and the mixture was allowed to stand at room temperature for 40 minutes. Next, the amount of 4-nitroanilide released into the solution was quantitated by spectrophotometry (405 nm).
A control measurement was conducted in the same manner, using the control 10% solution instead of the compound solution.
This measurement yielded the enzyme reaction inhibition in the presence of 100 μmol/L to 0.1 nmol/L of each compound of the invention.
The enzyme reaction inhibition at each compound concentration was subjected to non-linear regression analysis, and the IC50 value for inhibitory activity of each compound against clotting factor VIIa was calculated.

T1 sequence (P08709 213-466 limits assumed): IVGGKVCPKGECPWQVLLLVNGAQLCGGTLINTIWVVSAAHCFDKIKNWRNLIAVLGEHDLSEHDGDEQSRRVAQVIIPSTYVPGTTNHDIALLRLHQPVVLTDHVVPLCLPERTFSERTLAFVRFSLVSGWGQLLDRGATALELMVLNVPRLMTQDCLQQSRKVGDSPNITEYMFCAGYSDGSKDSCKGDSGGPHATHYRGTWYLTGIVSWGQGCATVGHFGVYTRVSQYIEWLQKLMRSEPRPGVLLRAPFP
T1 sequence (P08709 61-212 limits assumed): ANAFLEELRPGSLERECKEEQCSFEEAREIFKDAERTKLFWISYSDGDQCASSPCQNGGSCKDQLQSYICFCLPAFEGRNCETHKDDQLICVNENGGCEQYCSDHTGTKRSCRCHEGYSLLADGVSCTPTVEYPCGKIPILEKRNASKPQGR
T1 sequence (P13726 33-295 partner): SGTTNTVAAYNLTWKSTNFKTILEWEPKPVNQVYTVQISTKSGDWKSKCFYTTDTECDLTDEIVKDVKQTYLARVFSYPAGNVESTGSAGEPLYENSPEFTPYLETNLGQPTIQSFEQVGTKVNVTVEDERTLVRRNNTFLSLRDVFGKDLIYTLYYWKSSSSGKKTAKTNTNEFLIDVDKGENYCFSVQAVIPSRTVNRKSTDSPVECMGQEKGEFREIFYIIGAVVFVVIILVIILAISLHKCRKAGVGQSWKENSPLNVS

| SMILES | IC50 |
| --- | --- |
| CCOc1cc(C(Nc2ccc(C(=N)N)cc2)c2nn(-c3ncccn3)c(=O)[nH]2)cc2c1OCOC2 (racemic) [Example 28, (R) and (S)-4-{[(8-ethoxy-4H-benzo[1,3]dioxin-6-yl)-(5-oxo-1-pyrimidin-2-yl-4,5-dihydro-1H-[1,2,4]triazol-3-yl)methyl]amino}benzamidine acetate] | 8.9 nM |
| COc1cc(C(Nc2ccc(C(=N)N)cc2)c2nn(-c3ncccc3F)c(=O)[nH]2)cc2c1OCCC2 (racemic) [Example 29, (R) and (S)-4-({[1-(3-fluoropyridin-2-yl)-5-oxo-4,5-dihydro-1H-[1,2,4]triazol-3-yl]-(8-methoxychroman-6-yl)methyl}amino)benzamidine acetate] | 2.7 nM |
| COc1cc(C(Nc2ccc(C(=N)N)cc2)c2nn(-c3ncccn3)c(=O)[nH]2)c(F)c2c1OCCC2 (racemic) [Example 33, (R) and (S)-4-{[(5-fluoro-8-methoxychroman-6-yl)-(5-oxo-1-pyrimidin-2-yl-4,5-dihydro-1H-[1,2,4]triazol-3-yl)methyl]amino}benzamidine acetate] | 6.7 nM |
| COc1cc(C(Nc2ccc(C(=N)N)cc2)c2nn(-c3ncccc3N)c(=O)[nH]2)cc2c1OCCCO2 (racemic) [Example 34, (R) and (S)-4-({[1-(3-aminopyridin-2-yl)-5-oxo-4,5-dihydro-1H-[1,2,4]triazol-3-yl]-(9-methoxy-3,4-dihydro-2H-benzo[b][1,4]dioxepin-7-yl)methyl}amino)benzamidine acetate] | 3 nM |
| COc1ccc(C(Nc2ccc(C(=N)N)cc2)c2nn(-c3ccccc3C(=O)O)c(=O)[nH]2)cc1OC (racemic) [Example 36, (R) and (S)-2-{3-[(4-carbamimidoylphenylamino)-(3,4-dimethoxyphenyl)methyl]-5-oxo-4,5-dihydro-[1,2,4]triazol-1-yl}benzoic acid acetate] | 3.8 nM |
| COc1ccc(C(Nc2ccc(C(=N)N)c(F)c2)c2nn(-c3ccccc3C(=O)O)c(=O)[nH]2)cc1OC (racemic) [Example 37, (R) and (S)-2-{3-[(4-carbamimidoyl-3-fluorophenylamino)-(3,4-dimethoxyphenyl)methyl]-5-oxo-4,5-dihydro-[1,2,4]triazol-1-yl}benzoic acid acetate] | 4.4 nM |
| COc1cc(C(Nc2ccc(C(=N)N)cc2)c2nn(-c3ncccn3)c(=O)[nH]2)cc(C)n1 (racemic) [Example 39, (R) and (S)-4-{[(2-methoxy-6-methyl-pyridin-4-yl)-(5-oxo-1-pyrimidin-2-yl-4,5-dihydro-1H-[1,2,4]triazol-3-yl)methyl]amino}benzamidine acetate] | 20.6 nM |
| COc1cc(C(Nc2ccc(C(=N)N)cc2)c2nn(-c3ncccn3)c(=O)[nH]2)c(F)c2c1OCC2 (racemic) [Example 40, (R) and (S)-4-{[(4-fluoro-7-methoxy-2,3-dihydrobenzofuran-5-yl)-(5-oxo-1-pyrimidin-2-yl-4,5-dihydro-1H-[1,2,4]triazol-3-yl)methyl]amino}benzamidine acetate] | 9 nM |
| COc1cc(C(Nc2ccc(C(=N)N)cc2)c2nn(-c3ncccn3)c(=O)[nH]2)c(F)c2c1OCCO2 (racemic) [Example 41, (R) and (S)-4-{[(5-fluoro-8-methoxy-2,3-dihydrobenzo[1,4]dioxin-6-yl)-(5-oxo-1-pyrimidin-2-yl-4,5-dihydro-1H-[1,2,4]triazol-3-yl)methyl]amino}benzamidine acetate] | 6.4 nM |
| Cc1cc(OCC(=O)N(C)C)cc(C(Nc2ccc(C(=N)N)cc2)c2nn(-c3ncccn3)c(=O)[nH]2)c1 (racemic) [Example 44, (R) and (S)-2-{3-[(4-carbamimidoylphenylamino)-(5-oxo-1-pyrimidin-2-yl-4,5-dihydro-1H-[1,2,4]triazol-3-yl)methyl]-5-methylphenoxy}-N,N-dimethylacetamide acetate] | 25.7 nM |
| C#Cc1cc(O[C@H]2CCOC2)cc(C(Nc2ccc(C(=N)N)cc2)c2nn(-c3ncccn3)c(=O)[nH]2)c1 (mixture of isomers) [Example 45(2), 4-[((R) and (S)-{3-ethynyl-5-[(S)-(tetrahydrofuran-3-yl)oxy]phenyl}-(5-oxo-1-pyrimidin-2-yl-4,5-dihydro-1H-[1,2,4]triazol-3-yl)methyl)amino]benzamidine acetate] | 1.5 nM |
| C=Cc1cc(OCCO)cc(C(Nc2ccc(C(=N)N)cc2)c2nn(-c3ncccn3)c(=O)[nH]2)c1 (racemic) [Example 46, (R) and (S)-4-({[3-(2-hydroxyethoxy)-5-vinylphenyl]-(5-oxo-1-pyrimidin-2-yl-4,5-dihydro-1H-[1,2,4]triazol-3-yl)methyl}amino)benzamidine acetate] | 3.8 nM |

Continued by falling IC50, values first:

| IC50 | SMILES |
| --- | --- |
| 11.6 nM | COc1cc(C(Nc2ccc(C(=N)N)cc2)c2nn(-c3ncccn3)c(=O)[nH]2)c(F)c2c1OCOC2 (racemic) [Example 32, (R) and (S)-4-{[(5-fluoro-8-methoxy-4H-benzo[1,3]dioxin-6-yl)-(5-oxo-1-pyrimidin-2-yl-4,5-dihydro-1H-[1,2,4]triazol-3-yl)methyl]amino}benzamidine acetate] |
| 8.9 nM | C=Cc1cc(O)cc(C(Nc2ccc(C(=N)N)cc2)c2nn(-c3ncccn3)c(=O)[nH]2)c1 (racemic) [Example 47, 4-{[(3-hydroxy-5-vinylphenyl)-(5-oxo-1-pyrimidin-2-yl-4,5-dihydro-1H-[1,2,4]triazol-3-yl)methyl]amino}benzamidine] |
| 7.9 nM | Cc1cc(OC2CCN(C)CC2)cc(C(Nc2ccc(C(=N)N)cc2)c2nn(-c3ncccn3)c(=O)[nH]2)c1 (racemic) [Example 43, (R) and (S)-4-({[3-methyl-5-(1-methylpiperidin-4-yloxy)phenyl]-(5-oxo-1-pyrimidin-2-yl-4,5-dihydro-1H-[1,2,4]triazol-3-yl)methyl}amino)benzamidine diacetate] |
| 7.4 nM | COc1cc(C(Nc2ccc(C(=N)N)cc2)c2nn(-c3ccccc3C(=O)O)c(=O)[nH]2)cc(C)n1 (racemic) [Example 38, (R) and (S)-2-{3-[(4-carbamimidoylphenylamino)-(2-methoxy-6-methylpyridin-4-yl)methyl]-5-oxo-4,5-dihydro-[1,2,4]triazol-1-yl}benzoic acid acetate] |
| 7.1 nM | COc1cc(C(Nc2ccc(C(=N)N)cc2)c2nn(-c3ncccn3)c(=O)[nH]2)cc2c1OCC2 (racemic) [Example 31, (R) and (S)-4-{[(7-methoxy-2,3-dihydrobenzofuran-5-yl)-(5-oxo-1-pyrimidin-2-yl-4,5-dihydro-1H-[1,2,4]triazol-3-yl)methyl]amino}benzamidine acetate] |
| 6.8 nM | CCOc1cc(C(Nc2ccc(C(=N)N)cc2)c2nn(-c3ncccc3N)c(=O)[nH]2)ccc1OC (racemic) [Example 35, (R) and (S)-4-({[1-(3-aminopyridin-2-yl)-5-oxo-4,5-dihydro-1H-[1,2,4]triazol-3-yl]-(3-ethoxy-4-methoxyphenyl)methyl}amino)benzamidine acetate] |
| 3.9 nM | COc1cc(C(Nc2ccc(C(=N)N)cc2)c2nn(-c3ncccc3F)c(=O)[nH]2)cc2c1OCCCO2 (racemic) [Example 30, (R) and (S)-4-({[1-(3-fluoropyridin-2-yl)-5-oxo-4,5-dihydro-1H-[1,2,4]triazol-3-yl]-(9-methoxy-3,4-dihydro-2H-benzo[b][1,4]dioxepin-7-yl)methyl}amino)benzamidine acetate] |
| 3.6 nM | COc1cc(C(Nc2ccc(C(=N)N)cc2)c2nn(-c3ncccn3)c(=O)[nH]2)c(F)c2c1OCCCO2 (racemic) [Example 42, (R) and (S)-4-{[(6-fluoro-9-methoxy-3,4-dihydro-2H-benzo[b][1,4]dioxepin-7-yl)-(5-oxo-1-pyrimidin-2-yl-4,5-dihydro-1H-[1,2,4]triazol-3-yl)methyl]amino}benzamidine acetate] |
| 1.3 nM | C=Cc1cc(O[C@H]2CCOC2)cc(C(Nc2ccc(C(=N)N)cc2)c2nn(-c3ncccn3)c(=O)[nH]2)c1 (mixture of isomers) [Example 45(1), 4-[((R) and (S)-(5-oxo-1-pyrimidin-2-yl-4,5-dihydro-1H-[1,2,4]triazol-3-yl)-{3-[(S)-(tetrahydrofuran-3-yl)oxy]-5-vinylphenyl}methyl)amino]benzamidine acetate] |
